For one series, the system named is Central nervous system. Conditions: literature compound; cited from earlier work.
A further series has as its system bacteria. To be noted: literature compound; cited from earlier work.
Series [1] has as its system retroperitoneal (white) and interscapular (brown) adipose tissue. As to the kind of experiment: Anti-obesity activity on diabetic obese mouse. The format is in vivo, diabetic obese mouse (KK-Ay/Ta, Jcl. female). Conditions: 3 mg/kg/day oral for three weeks, significantly different from control, p < 0.01. The procedure:
Experiment 3 Anti-obesity activity on diabetic obese mouse:
A test compound suspended in 0.5% tragacanth solution was orally administrated to a diabetic obese mouse (KK-Ay/Ta, Jcl. female; 50-60 g, Clea Japan Inc.) at a dose of 3 mg/kg/day for three weeks, and then, the retroperitoneal adipose tissue and the interscapulal adipose tissue were taken, and the weights thereof were measured as white adipose tissue and brown adipose tissue, respectively.

For series [2], the system named is glucose level in the blood. As to the kind of experiment: Blood glucose reducing activity on fasted mouse. The format is in vivo, ddY male mouse. Conditions: po, 3 h, read-out: Blood glucose reducing activity (ED25). On the procedure:
Experiment 2 Blood glucose reducing activity on fasted mouse:
A test compound suspended in 0.5% tragacanth solution was orally administered to a ddY male mouse (weight: 20-30 g) under being fasted, and the blood was collected before and at three hours after the administration of the test compound. The glucose level in the blood was determined by the method of Kunst A., et al. (Hexokinase/G6PDH method) [Bergmeyer, H. U. (eds.), […], vol. VI, 3rd edition, Verlag Chemie GmbH, Weinheim·Deerfield Beach, Florida·Basel, 163-172 (1984)]. The blood glucose reducing activity of the test compound was expressed by ED25 value which is a concentration of the test compound required to reduce the glucose level in blood before the administration of the test compound by 25%. Gliclazide was used as a reference compound which is a commercially available drug for treatment of diabetes mellitus.

For series [3], the target named is T1, human β3 -adrenergic receptor (Homo sapiens, UniProt P13945).
T1 construct: expressed in transfected cells; host or cells: CHO-K1 (ATCC CCL 61), clone CHO/pKREX10-36
T1 sequence (P13945 whole entry): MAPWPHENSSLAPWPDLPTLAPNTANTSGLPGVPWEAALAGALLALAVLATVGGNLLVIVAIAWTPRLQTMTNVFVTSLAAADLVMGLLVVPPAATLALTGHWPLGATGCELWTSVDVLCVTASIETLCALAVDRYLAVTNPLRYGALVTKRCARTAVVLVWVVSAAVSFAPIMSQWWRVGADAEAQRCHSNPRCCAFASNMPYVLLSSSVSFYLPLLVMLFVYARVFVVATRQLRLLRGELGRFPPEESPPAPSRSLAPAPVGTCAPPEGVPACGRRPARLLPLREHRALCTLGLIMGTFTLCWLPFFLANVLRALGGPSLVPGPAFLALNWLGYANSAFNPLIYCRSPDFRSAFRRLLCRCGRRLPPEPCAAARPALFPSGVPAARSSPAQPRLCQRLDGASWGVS
As to the kind of experiment: Human β3-adrenergic receptor-stimulating activity (cAMP accumulation in CHO/pKREX10-36 cells). The format is cell-based. To be noted: for EC50: 50% of cAMP accumulation, CHO/pKREX10-36, 37° C., 30 minutes, read-out: EC50 value β3 -receptor; for Emax: read-out: I.A. value β3 -receptor. The procedure:
Establishment of the cell line highly expressing human β3 -adrenergic receptor
Separately, another expression vector for animal cells, pSV2-neo [Southern and Berg, J. Mol. Appl. Genet. […] These DNAs were ligated with DNA Ligation Kit (Takara Shuzo Co., Ltd.) and were introduced into E. coli HB101 in a conventional manner to give the transformants. Plasmid DNAs were prepared from the transformants and digested with a restriction endonuclease PstI. A clone which produced about 3.8 kbp, 2.2 kbp, 1.4 kbp, and 0.9 kbp fragments was selected to give a plasmid named pKCN0.
The reaction mixture was used for transformation of E. coli HB101 and plasmid DNAs were prepared from the selected transformants. The plasmid DNAs were digested with restriction endonucleases DraI and HindIII, and a clone which produced about 430 bp fragment was selected to give a plasmid named pKCN1 for expression vector.
10% Dimethyl sulfoxide was added to the reaction mixture at the PCR reaction.
After the reaction mixture was digested with restriction endonucleases Sse8387I and StuI, about 1.3 kbp fragment was isolated by electrophoresis. This fragment was ligated with expression vector pKCN1 which was digested with restriction endonucleases Sse8387I and EcoRV, and the resultant was introduced into E. coli HB101 in a conventional manner. Plasmid DNA was prepared from the selected transformant and the nucleotide sequence of the about 1.3 kbp fragment obtained by digestion of the plasmid DNA with restriction endonucleases Sse8387I and XhoI was determined. […] This plasmid for expressing human β3 -adrenergic receptor was named as pKREX10.
The reaction mixture was filtered with glass filter GF/C (Whatman) presoaked with 0.3% polyethyleneimine and washed by using BIO-DOT apparatus (Bio-Rad Laboratories), and the radioactivity on the filter was counted by γ-ray counter. […] Establishment of the cell line highly expressing human β2 -adrenergic receptor
(§1) Experiment 1 Human β-adrenergic receptor-stimulating activity:
(§2) The cells were peeled off by incubation with phosphate-buffered saline containing 0.5 mM EDTA at 37° C. for 10 minutes after the medium was removed. The CHO/pKREX10-36 cells were collected by centrifugation, and suspended in Hanks' balanced salts (ICN Biomedicals) containing 1 mM L-ascorbic acid and 1 mM 3-isobutyl-1-methylxanthine at the concentration of about 2×10^6cells/ml. This suspension (100μl) and a test compound were mixed in the same balanced salt (500 μl) and incubated at 37° C. for 30 minutes, followed by boiling for 5 minutes to terminate the reaction. After centrifugation of the reaction mixture, the amount of cAMP in the supernatant was measured by using cAMP EIA System (Amersham).
Background: cAMP levels reflect the balance of adenylyl cyclase and phosphodiesterase activity.

The target of series [4] is T2, human β2 -adrenergic receptor (Homo sapiens, UniProt P07550).
T2 construct: expressed in transfected cells; host or cells: CHO-K1, clone CHO/pKREX21-8
T2 sequence (P07550 whole entry): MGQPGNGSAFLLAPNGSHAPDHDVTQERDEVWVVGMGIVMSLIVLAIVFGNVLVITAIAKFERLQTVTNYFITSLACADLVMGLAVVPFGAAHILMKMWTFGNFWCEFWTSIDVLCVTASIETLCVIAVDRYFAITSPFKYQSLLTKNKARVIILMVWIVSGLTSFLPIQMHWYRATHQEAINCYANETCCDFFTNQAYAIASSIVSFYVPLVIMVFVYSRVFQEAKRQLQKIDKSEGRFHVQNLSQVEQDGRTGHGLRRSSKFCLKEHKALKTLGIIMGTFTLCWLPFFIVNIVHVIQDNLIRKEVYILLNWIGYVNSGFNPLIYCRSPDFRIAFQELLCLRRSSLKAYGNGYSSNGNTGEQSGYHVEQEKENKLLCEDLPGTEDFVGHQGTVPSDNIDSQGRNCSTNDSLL
As to the kind of experiment: Human β2-adrenergic receptor-stimulating activity (cAMP accumulation in CHO/pKREX21-8 cells). In kind it is cell-based. To be noted: for Emax: read-out: I.A. value β2 -receptor.
From the text: cDNA was synthesized with Poly(A)^+ RNA derived from human brain (Clontech: trade number; CL6516-1) by using SuperScript Systems (Life Technologies).
After the reaction mixture was digested with restriction endonucleases Sse8387I and HindIII, about 1.4 kbp fragment was isolated by electrophoresis. This fragment was ligated with expression vector pKCN1 digested with restriction endonucleases Sse8387I and HindIII, and was introduced into E. coli HB101 in a conventional manner. Plasmid DNA was prepared from the selected transformant, and the nucleotide sequence of the about 1.4 kbp fragment obtained by digestion of this plasmid DNA with restriction endonucleases Sse8387I and HindIII was determined. […] This plasmid was named as pKREX21 for highly expressing human β2 -adrenergic receptor, and was introduced into CHO-K1 in the same manner as the method of establishment of the cell line highly expressing human β3 -adrenergic receptor.
as §1, §2
Similarly, the amount of cAMP was measured by using CHO/pKREX21-8 for highly expressing human β2 -adrenergic receptor instead of the CHO/pKREX10-36 for highly expressing human β3 -adrenergic receptor.

Series [5] in a line: Acute toxicity experiment using mice. In kind it is in vivo. Conditions: oral administration at a dose of 300 mg/kg. From the text:
Thus, when taking into consideration the therapeutically effective dose, the compounds of the present invention have no problem in safety to living body.

The term EC50 denotes the midpoint of the concentration-response curve.

As to `CC(Cc1c[nH]c2ccccc12)NCC(O)c1ccc(O)c(O)c1` (stereo not drawn), the “Pharmacological Activity (central nervous system)” value with Central nervous system is listed as “Central nervous system inhibitory”.
With `COc1ccc(C(O)CNCCc2c[nH]c3ccccc23)cc1Br` (stereo not drawn), the “Pharmacological Activity (antibacterial)” value in the series on bacteria was “Antibacterial activity”.
As to `COc1cccc2c(CC(C)NCC(O)c3cccc(Cl)c3)c[nH]c12` (stereo not drawn) [Example 1, 2-[3-(7-methoxyindol-3-yl)-2-propylamino]-1-(3-chlorophenyl)ethanol], the “Weight of brown adipose tissue” value in series [1] (control 0.460 ± 0.03) came to 0.289 ± 0.04 g. Further, the “Weight of white adipose tissue” value in series [1] (control 4.92 ± 0.28) came to 2.35 ± 0.12 g. Also, the ED25 in series [2] is 0.05 mg/kg. Also, in series [3], the EC50 came to 1.7 nM and the Emax is 113%. In series [4], a half-maximal response (EC50) required 25 nM and the Emax stood at 33%.
As for `COc1cccc2c(CC(C)NC[C@H](O)c3cccc(Cl)c3)c[nH]c12` (stereo partly drawn) [Example 1-A, 2-[3-(7-methoxyindol-3-yl)-2-propylamino]-(1R)-1-(3-chlorophenyl)ethanol], the ED25 in series [2] was 0.003 mg/kg. For the same molecule, in series [3], the EC50 was found to be 0.67 nM and the Emax amounted to 114%. In addition, in series [5], the acute toxicity result is given as “no toxicity at all”. In addition, in series [4], a half-maximal effect (EC50) was put at 13 nM and the Emax worked out at 36%.

These data come from patent publication US5817689A, “Indole derivatives having a 2-phenyl-ethanolamino-substituted lower alkyl group at the 2-or 3-position thereof” (priority 1994, dated 1998).
